The target in one data set is T1, rat CYP24A1 (Rattus norvegicus, UniProt Q09128).
T1 construct: made in house; host or cells: E. coli
T1 sequence (Q09128 36-514): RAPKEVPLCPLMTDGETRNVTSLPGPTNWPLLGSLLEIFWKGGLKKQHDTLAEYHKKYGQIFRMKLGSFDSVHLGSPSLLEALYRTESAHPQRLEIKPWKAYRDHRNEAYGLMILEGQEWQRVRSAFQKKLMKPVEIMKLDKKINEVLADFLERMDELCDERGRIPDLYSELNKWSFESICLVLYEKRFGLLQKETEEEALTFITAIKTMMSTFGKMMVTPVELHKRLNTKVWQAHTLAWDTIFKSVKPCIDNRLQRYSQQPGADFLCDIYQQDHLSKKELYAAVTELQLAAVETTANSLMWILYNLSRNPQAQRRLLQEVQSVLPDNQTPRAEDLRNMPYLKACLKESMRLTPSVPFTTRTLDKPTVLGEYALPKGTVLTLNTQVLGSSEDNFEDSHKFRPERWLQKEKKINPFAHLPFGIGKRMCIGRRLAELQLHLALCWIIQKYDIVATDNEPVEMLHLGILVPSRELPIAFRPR
Put plainly: Kinetics of metabolism of analogs in phospholipid vesicles by rat CYP24A1. It counts as in vitro ADME. Particulars: for Km: rat CYP24A1 0.14 µM, phospholipid vesicles, 1 min incubation, ± SE from curve fit. The method, then:
An incubation time of 1 min was chosen to obtain the initial rate based on the time courses (Fig. 6) and previous studies[28],[29].
To test metabolism of each analog, they were incorporated into phospholipid vesicles made from dioleoyl phosphatidylcholine and cardiolipin by sonication, as before[24],[28]. […] Samples from incubations with CYP24A1 were extracted with dichloromethane and analysed by HPLC using a 25 cm Grace Alltima C18 column, as before[27],[28]. […] For the more polar 33, the acetonitrile gradient was 30% to 100% acetonitrile for 30 min then 100% acetonitrile for 20 min, at 0.5 mL/min.

For data set [1] the following is noted: rats; cited from earlier work.
Details of data set [2]: method as in earlier work. Particulars: mice, doses as high as 60 µg/kg; cited from earlier work.
The subject of data set [3] is collagen-induced arthritis. Also on record: method as in earlier work. Particulars: mouse model, dose as low as 2 µg/kg; cited from earlier work.
The test system of another data set is IFNγ production. Put plainly: IFNγ inhibition assay in anti-CD3 activated splenocytes. Particulars: for activity at 0.1 µM: Mus musculus, Splenocyte, 72 h, read-out: IFNγ (ratio ± SD).

Read-outs that look alike come from different tables or passages of the source.

In the case of `C=C1CC[C@H](O)C/C1=C/C=C1\CCC[C@@]2(C)[C@H]1CC[C@@H]2[C@@](C)(O)CCCC(C)C` [20S(OH)D3, 20S-hydroxyvitamin D3], at rat CYP24A1 (rat CYP24A1), the “Km, fold higher than for 4” value is on record as “over 17 fold” and the “catalytic efficiency, fold lower than for 13” value is on record as 13 fold. In addition, on rat CYP24A1, the Km was 34.8 ± 9.4 mmol/mol PL. Also, the hypercalcemia entry in data set [1] is on record as “does not cause hypercalcemia”. In data set [2], the hypercalcemia result is “does not cause hypercalcemia”. Also, the “effect on collagen-induced arthritis” value in data set [3] was “suppressive effects”. Moreover, the “decrease of IFNγ production level” value with IFNγ production (100 nM) is on record as 48%. Moreover, the activity at 0.1 µM with IFNγ production was 51.7 ± 4.6%.
On to `C=C1CC[C@H](O)C/C1=C/C=C1\CCC[C@@]2(C)[C@H]1CC[C@@H]2[C@@](C)(O)CCOC(C)C` [compound 13], for which, on rat CYP24A1 (rat CYP24A1), the “Km, fold lower than that for 20S(OH)D3” value is given as 3–4 fold and the “kcat/Km, higher than for the next best analog, 4” value turned out to be 72%. The Km on rat CYP24A1 came out at 7.9 ± 1.5 mmol/mol PL. Further, the activity at 0.1 µM with IFNγ production came to 82.4 ± 3.1%.
